± gives the expanded uncertainty stated by the source.
Assay: molar heat capacity at constant pressure
Conditions: 101.33 kPa

O=P([O-])([O-])[O-].[Fe+2].[Li+] [iron(II) lithium phosphate]
Conditions | molar heat capacity at constant pressure [J/K/mol]
2.03 K, Crystal 2, relaxation calorimetry | 0.0162 ± 0.0013
2.2 K, Crystal 2, relaxation calorimetry | 0.0187 ± 0.0015
2.38 K, Crystal 2, relaxation calorimetry | 0.0224 ± 0.0018
2.58 K, Crystal 2, relaxation calorimetry | 0.0243 ± 0.0019
2.8 K, Crystal 2, relaxation calorimetry | 0.0271 ± 0.0021
3.04 K, Crystal 2, relaxation calorimetry | 0.0309 ± 0.0024
3.29 K, Crystal 2, relaxation calorimetry | 0.0325 ± 0.0026
3.56 K, Crystal 2, relaxation calorimetry | 0.0401 ± 0.0032
3.86 K, Crystal 2, relaxation calorimetry | 0.048 ± 0.0038
4.19 K, Crystal 2, relaxation calorimetry | 0.0562 ± 0.0044
4.54 K, Crystal 2, relaxation calorimetry | 0.059 ± 0.0046
4.92 K, Crystal 2, relaxation calorimetry | 0.0709 ± 0.0056
5 K, Crystal 2, relaxation calorimetry | 0.0481 ± 0.004
5.33 K, Crystal 2, relaxation calorimetry | 0.0742 ± 0.0058
5.78 K, Crystal 2, relaxation calorimetry | 0.0903 ± 0.0071
6.26 K, Crystal 2, relaxation calorimetry | 0.101 ± 0.008
6.78 K, Crystal 2, relaxation calorimetry | 0.12 ± 0.009
7.35 K, Crystal 2, relaxation calorimetry | 0.138 ± 0.011
7.97 K, Crystal 2, relaxation calorimetry | 0.173 ± 0.014
8.64 K, Crystal 2, relaxation calorimetry | 0.22 ± 0.017
9.36 K, Crystal 2, relaxation calorimetry | 0.276 ± 0.022
10 K, Crystal 2, relaxation calorimetry | 0.3419 ± 0.027
10.14 K, Crystal 2, relaxation calorimetry | 0.364 ± 0.036
10.23 K, Crystal 2, relaxation calorimetry | 0.46 ± 0.042
10.75 K, Crystal 2, relaxation calorimetry | 0.535 ± 0.042
11.26 K, Crystal 2, relaxation calorimetry | 0.615 ± 0.048
11.77 K, Crystal 2, relaxation calorimetry | 0.706 ± 0.055
12.28 K, Crystal 2, relaxation calorimetry | 0.808 ± 0.063
12.8 K, Crystal 2, relaxation calorimetry | 0.917 ± 0.072
13.31 K, Crystal 2, relaxation calorimetry | 1.038 ± 0.082
13.83 K, Crystal 2, relaxation calorimetry | 1.171 ± 0.092
14.34 K, Crystal 2, relaxation calorimetry | 1.314 ± 0.1
14.85 K, Crystal 2, relaxation calorimetry | 1.467 ± 0.12
15 K, Crystal 2, relaxation calorimetry | 1.514 ± 0.12
15.36 K, Crystal 2, relaxation calorimetry | 1.631 ± 0.13
15.88 K, Crystal 2, relaxation calorimetry | 1.797 ± 0.14
16.39 K, Crystal 2, relaxation calorimetry | 1.977 ± 0.15
16.9 K, Crystal 2, relaxation calorimetry | 2.169 ± 0.17
17.41 K, Crystal 2, relaxation calorimetry | 2.363 ± 0.18
17.93 K, Crystal 2, relaxation calorimetry | 2.571 ± 0.2
18.44 K, Crystal 2, relaxation calorimetry | 2.79 ± 0.22
18.95 K, Crystal 2, relaxation calorimetry | 3.015 ± 0.24
19.47 K, Crystal 2, relaxation calorimetry | 3.249 ± 0.26
19.98 K, Crystal 2, relaxation calorimetry | 3.484 ± 0.27
20 K, Crystal 2, relaxation calorimetry | 3.498 ± 0.27
20.49 K, Crystal 2, relaxation calorimetry | 3.75 ± 0.15
21.01 K, Crystal 2, relaxation calorimetry | 3.99 ± 0.16
21.51 K, Crystal 2, relaxation calorimetry | 4.26 ± 0.17
22.03 K, Crystal 2, relaxation calorimetry | 4.55 ± 0.19
22.54 K, Crystal 2, relaxation calorimetry | 4.83 ± 0.2
23.05 K, Crystal 2, relaxation calorimetry | 5.13 ± 0.21
23.56 K, Crystal 2, relaxation calorimetry | 5.43 ± 0.22
24.08 K, Crystal 2, relaxation calorimetry | 5.74 ± 0.23
24.59 K, Crystal 2, relaxation calorimetry | 6.06 ± 0.25
25 K, Crystal 2, relaxation calorimetry | 6.334 ± 0.26
25.1 K, Crystal 2, relaxation calorimetry | 6.4 ± 0.26
25.61 K, Crystal 2, relaxation calorimetry | 6.75 ± 0.28
26.13 K, Crystal 2, relaxation calorimetry | 7.09 ± 0.29
26.64 K, Crystal 2, relaxation calorimetry | 7.45 ± 0.3
27.15 K, Crystal 2, relaxation calorimetry | 7.84 ± 0.32
27.67 K, Crystal 2, relaxation calorimetry | 8.22 ± 0.34
28.18 K, Crystal 2, relaxation calorimetry | 8.63 ± 0.35
28.69 K, Crystal 2, relaxation calorimetry | 9.04 ± 0.37
29.2 K, Crystal 2, relaxation calorimetry | 9.47 ± 0.39
29.71 K, Crystal 2, relaxation calorimetry | 9.92 ± 0.4
30 K, Crystal 2, relaxation calorimetry | 10.17 ± 0.41
30.22 K, Crystal 2, relaxation calorimetry | 10.36 ± 0.42
30.73 K, Crystal 2, relaxation calorimetry | 10.82 ± 0.44
31.24 K, Crystal 2, relaxation calorimetry | 11.31 ± 0.46
31.76 K, Crystal 2, relaxation calorimetry | 11.78 ± 0.48
32.27 K, Crystal 2, relaxation calorimetry | 12.28 ± 0.5
32.78 K, Crystal 2, relaxation calorimetry | 12.78 ± 0.52
33.29 K, Crystal 2, relaxation calorimetry | 13.28 ± 0.54
33.8 K, Crystal 2, relaxation calorimetry | 13.81 ± 0.56
34.31 K, Crystal 2, relaxation calorimetry | 14.35 ± 0.58
34.82 K, Crystal 2, relaxation calorimetry | 14.9 ± 0.61
35 K, Crystal 2, relaxation calorimetry | 15.09 ± 0.61
35.34 K, Crystal 2, relaxation calorimetry | 15.46 ± 0.63
35.85 K, Crystal 2, relaxation calorimetry | 16.03 ± 0.65
37.02 K, Crystal 2, relaxation calorimetry | 17.18 ± 0.7
38.89 K, Crystal 2, relaxation calorimetry | 19.19 ± 0.78
40 K, Crystal 2, relaxation calorimetry | 20.69 ± 0.84
40.75 K, Crystal 2, relaxation calorimetry | 21.8 ± 0.89
42 K, Crystal 2, relaxation calorimetry | 23.73 ± 0.96
42.62 K, Crystal 2, relaxation calorimetry | 24.74 ± 1
44.48 K, Crystal 2, relaxation calorimetry | 28.1 ± 1.1
45 K, Crystal 2, relaxation calorimetry | 29.13 ± 1.2
45.5 K, Crystal 2, relaxation calorimetry | 30.18 ± 1.2
45.72 K, Crystal 2, relaxation calorimetry | 30.67 ± 1.2
45.92 K, Crystal 2, relaxation calorimetry | 31.15 ± 1.3
46 K, Crystal 2, relaxation calorimetry | 31.31 ± 1.3
46.14 K, Crystal 2, relaxation calorimetry | 31.65 ± 1.3
46.34 K, Crystal 2, relaxation calorimetry | 32.17 ± 1.3
46.55 K, Crystal 2, relaxation calorimetry | 32.68 ± 1.3
46.75 K, Crystal 2, relaxation calorimetry | 33.24 ± 1.4
46.97 K, Crystal 2, relaxation calorimetry | 33.77 ± 1.4
47 K, Crystal 2, relaxation calorimetry | 33.89 ± 1.4
47.16 K, Crystal 2, relaxation calorimetry | 34.33 ± 1.4
47.38 K, Crystal 2, relaxation calorimetry | 34.9 ± 1.4
47.58 K, Crystal 2, relaxation calorimetry | 35.53 ± 1.4
47.8 K, Crystal 2, relaxation calorimetry | 36.14 ± 1.5
47.99 K, Crystal 2, relaxation calorimetry | 36.79 ± 1.5
48 K, Crystal 2, relaxation calorimetry | 36.77 ± 1.5
48.2 K, Crystal 2, relaxation calorimetry | 37.43 ± 1.5
48.4 K, Crystal 2, relaxation calorimetry | 38.11 ± 1.6
48.62 K, Crystal 2, relaxation calorimetry | 38.7 ± 1.6
48.82 K, Crystal 2, relaxation calorimetry | 39.3 ± 1.6
49 K, Crystal 2, relaxation calorimetry | 39.73 ± 1.6
49.03 K, Crystal 2, relaxation calorimetry | 39.72 ± 1.6
49.22 K, Crystal 2, relaxation calorimetry | 40.03 ± 1.6
49.24 K, Crystal 1, combination of DSC and relaxation calorimetry | 39.99 ± 1.6
49.24 K, Crystal 2, relaxation calorimetry | 39.99 ± 1.6
49.44 K, Crystal 1, relaxation calorimetry | 39.73 ± 1.7
49.64 K, Crystal 1, relaxation calorimetry | 38.83 ± 1.6
49.85 K, Crystal 1, relaxation calorimetry | 36.64 ± 1.6
50 K, Crystal 1, combination of DSC and relaxation calorimetry | 34.52 ± 1.4
50.05 K, Crystal 1, relaxation calorimetry | 33.84 ± 1.4
50.27 K, Crystal 1, relaxation calorimetry | 30.69 ± 1.3
50.47 K, Crystal 1, relaxation calorimetry | 28.52 ± 1.2
50.69 K, Crystal 1, relaxation calorimetry | 26.66 ± 1.1
50.89 K, Crystal 1, relaxation calorimetry | 25.59 ± 1.1
51 K, Crystal 1, combination of DSC and relaxation calorimetry | 25.15 ± 1
51.08 K, Crystal 1, relaxation calorimetry | 24.86 ± 1
51.29 K, Crystal 1, relaxation calorimetry | 24.3 ± 1
51.5 K, Crystal 1, relaxation calorimetry | 23.89 ± 0.97
51.7 K, Crystal 1, relaxation calorimetry | 23.58 ± 0.96
51.9 K, Crystal 1, relaxation calorimetry | 23.36 ± 0.95
52 K, Crystal 1, combination of DSC and relaxation calorimetry | 23.25 ± 0.95
52.12 K, Crystal 1, relaxation calorimetry | 23.13 ± 0.94
52.32 K, Crystal 1, relaxation calorimetry | 22.99 ± 0.93
52.53 K, Crystal 1, relaxation calorimetry | 22.88 ± 0.93
52.72 K, Crystal 1, relaxation calorimetry | 22.83 ± 0.93
52.94 K, Crystal 1, relaxation calorimetry | 22.74 ± 0.92
53 K, Crystal 1, combination of DSC and relaxation calorimetry | 22.72 ± 0.92
53.14 K, Crystal 1, relaxation calorimetry | 22.69 ± 0.92
53.35 K, Crystal 1, relaxation calorimetry | 22.66 ± 0.92
53.55 K, Crystal 1, relaxation calorimetry | 22.66 ± 0.92
53.77 K, Crystal 1, relaxation calorimetry | 22.66 ± 0.92
53.96 K, Crystal 1, relaxation calorimetry | 22.66 ± 0.92
54 K, Crystal 1, combination of DSC and relaxation calorimetry | 22.66 ± 0.92
54.18 K, Crystal 1, relaxation calorimetry | 22.69 ± 0.92
54.38 K, Crystal 1, relaxation calorimetry | 22.68 ± 0.92
54.59 K, Crystal 1, relaxation calorimetry | 22.73 ± 0.92
54.79 K, Crystal 1, relaxation calorimetry | 22.77 ± 0.92
55 K, Crystal 1, combination of DSC and relaxation calorimetry | 22.82 ± 0.93
55 K, Crystal 1, relaxation calorimetry | 22.82 ± 0.93
55.2 K, Crystal 1, relaxation calorimetry | 22.85 ± 0.93
55.41 K, Crystal 1, relaxation calorimetry | 22.91 ± 0.93
55.62 K, Crystal 1, relaxation calorimetry | 22.95 ± 0.93
56.61 K, Crystal 1, relaxation calorimetry | 23.28 ± 0.95
57.71 K, Crystal 1, relaxation calorimetry | 23.69 ± 0.96
58.79 K, Crystal 1, relaxation calorimetry | 24.17 ± 0.98
59.89 K, Crystal 1, relaxation calorimetry | 24.67 ± 1
60 K, Crystal 1, combination of DSC and relaxation calorimetry | 24.71 ± 1
60.97 K, Crystal 1, relaxation calorimetry | 25.19 ± 1
62.06 K, Crystal 1, relaxation calorimetry | 25.78 ± 1.1
63.15 K, Crystal 1, relaxation calorimetry | 26.36 ± 1.1
64.24 K, Crystal 1, relaxation calorimetry | 26.97 ± 1.1
65 K, Crystal 1, combination of DSC and relaxation calorimetry | 27.41 ± 1.1
65.33 K, Crystal 1, relaxation calorimetry | 27.59 ± 1.1
